Test results as given in PMC8894927, “Oxylipin signaling in salt-stressed soybean is modulated by ligand-dependent interaction of Class II acyl-CoA-binding proteins with lipoxygenase” (The Plant Cell, 2021).
Several values for one entry are separate records, joined by “and”; a condition that tells them apart may be missing. Equal entries are not always repeated. Values belong to the molecule of their own block, whether it stands above or below them.

Experiments:
[1] = tested on: AtACBP2 interaction with LYSOPL2; set-up: method as in Miao et al., 2019; conditions: ref Miao et al., 2019; cited from earlier work
(His)6-GmACBP3.1_33–346 = assay: Protein–lipid overlay assay; assay type: binding, soybean; conditions: commercial strips with 15 neutral and polar lipids; 0.5 μg mL−1 protein
(His)6-GmACBP4.1_33–354 [2] = assay: Protein–lipid overlay assay; assay type: binding, soybean; conditions: commercial strips and PA-spotted nitrocellulose strips; 0.5 μg mL−1 protein
(His)6-GmACBP4.1_33–354 [3] = assay: Liposome association assay for PA binding; set-up: species or system soybean; conditions: PA:di-16:0-PC liposomes, 0–100% (w/w) PA
[4] = tested on: GmACBP4.1_33–354 interaction with VLXB:StrepII; assay: Strep-Tactin pull-down assay with supplemented acyl-CoAs; assay type: binding, soybean; conditions: acyl-CoA 12.5–100 μM, versus control without acyl-CoA
AtACBP1 = biological target: AtACBP1; set-up: method as in Xue et al., 2014; conditions: ref Xue et al., 2014; cited from earlier work
[5] = biological target: (His)6-GmACBP4.1_33–354 (WT or Y135A mutant); assay: Protein–lipid bead binding assay with competing acyl-CoA (PA beads); set-up: species or system soybean
(His)6-GmACBP4.1_33–354 [6] = assay: Isothermal titration calorimetry of acyl-CoA binding (WT protein); set-up: species or system soybean; conditions: ITC at 25°C; 15 μM protein titrated with 200 μM acyl-CoA; mean ± SD, three experiments; read-out: KD, dissociation constant
Experimental: ITC was conducted with a MicroCal iTC200 system (GE Healthcare) at 25°C in 10 mM sodium phosphate (pH 7) by 20 injections of 1.8-μL acyl-CoAs (200 μM; Avanti Polar Lipids Inc., Alabaster, AL, USA) into the sample cell with 15 μM purified (His)6-GmACBP4.1. Each injection lasted 4 s at 150-s intervals with a stirring speed of 1,000 rpm. Nonspecific heat effects were estimated and corrected after saturation. The baseline was adjusted, and the data were fitted into a single-site binding model using the Origin version 7.0 software (OriginLab).
Supplemental Table 1. Binding constants and thermodynamic parameters for (His)6-GmACBP4.133–354 interaction with acyl-CoAs. (Supports Figure 5A) […]
Isothermal titration calorimetry analysis was performed by titration of 250 μL of 15 μM (His)6-GmACBP4.133–354 with […]
from three independent experiments. n, stoichiometry (number of ligand sites per protein); KD, dissociation constant; ∆H, enthalpy change; −T∆S, entropy change; ∆G, Gibbs free energy.

GmACBP4.1_33–354 (WT) = biological target: T1, GmACBP4.1_33–354 (WT) (Glycine max, UniProt I1KAV2); conditions: SEM, n = 3
T1 construct: gene LOC100816670
T1 sequence (I1KAV2 33-354): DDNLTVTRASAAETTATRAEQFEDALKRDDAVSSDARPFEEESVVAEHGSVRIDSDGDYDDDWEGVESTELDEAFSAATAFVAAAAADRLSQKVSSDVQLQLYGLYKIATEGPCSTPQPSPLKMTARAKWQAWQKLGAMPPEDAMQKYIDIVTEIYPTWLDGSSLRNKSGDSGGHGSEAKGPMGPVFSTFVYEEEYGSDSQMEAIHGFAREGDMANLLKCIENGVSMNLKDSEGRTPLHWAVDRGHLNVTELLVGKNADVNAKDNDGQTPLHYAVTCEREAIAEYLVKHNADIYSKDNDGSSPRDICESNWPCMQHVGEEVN
From the text: The liposome-associated protein fraction was quantified densitometrically. […] D, Protein–lipid bead binding assays with competing acyl-CoAs. […] Bound and unbound WT (left panel) and Y135A (middle panel) were detected by immunoblotting using anti-GsACBP3 antibodies. Input lanes represent 50% protein. Arrowheads indicate target bands. The PA-bound protein fraction was quantified densitometrically. The half maximal inhibitory concentration (IC50) of the WT is the mean ± SEM from three independent experiments.
To validate this assumption, the binding of the WT and Y135A mutant to PA beads was investigated in the presence of C18:2-CoA (Figure 5, D).
After three washes in the same buffer, bound proteins were eluted with 6× Laemmli sample buffer. Protein binding on filter strips, liposomes, and PA beads was detected by immunoblotting using anti-ACBP3.1 antibodies.

[7] = tested on: GmACBP4.1_33–354 interaction with GmPLDα1:StrepII; assay: Strep-Tactin pull-down assay with supplemented acyl-CoAs; assay type: binding, soybean; conditions: acyl-CoA 12.5–100 μM, versus control without acyl-CoA
From the text: Figure 6 Specific acyl-CoA species facilitate GmACBP4 interaction with VLXB and GmPLDα1. A, Strep-Tactin pull-down assays. […] (His)6-GmACBP4.1_33–354 were detected in eluates by immunoblotting using anti-ACBP3 antibodies. […] Input lanes represent 1% protein. Arrowheads indicate target bands of 40-kD (His)6-GmACBP4.1_33–354 (apparent: 50 kD). The bound protein fraction was quantified densitometrically. […] B–C, Strep-Tactin pull-down assays with supplemented acyl-CoAs. […] Input lanes represent 5% proteins in (B) or 10% proteins in (C). Arrowheads indicate target bands of 40-kD (His)6-GmACBP4.1_33–354 (apparent: 50kD).
Strep-Tactin pull-down assays were performed using Strep-Tactin XT resins (IBA) following the manufacturer’s instructions. Briefly, 5 μL of resins with/without prebound VLXB:StrepII or GmPLDα1:StrepII (0.5 μM) were agitated with GmACBP4.1_33–354 (0.5 μM) and acyl-CoAs (0, 12.5, 25, 50, and 100 μM) in Buffer W containing 0.1 M Tris–HCl (pH 7), 0.15 M NaCl, 1 mM EDTA and 0.05% (w/v) Triton X-100 at 4°C for 2 h. After three washes in Buffer W, bound proteins were eluted in Buffer W with 50 mM biotin, and analyzed by immunoblotting using anti-ACBP3.1 antibodies.

Molecule: lysophosphatidylcholine
- fold higher affinity of AtACBP2 for LYSOPL2 interaction when complexed with the ligand [1]: 10 fold

- binding on lipid filter strips ((His)6-GmACBP3.1_33–346): sole ligand
- binding on lipid filter strips ((His)6-GmACBP4.1_33–354 [2]): sole ligand
- descending order of affinity to the WT (liposome association) ((His)6-GmACBP4.1_33–354 [3]; listed as 32:0-PA): relatively higher affinity
Molecule: CCCCCCCCCCCCCCCC(=O)OCC(COP(=O)(O)O)OC(=O)CCCCCCCCCCCCCCC (stereo not drawn) [di-16:0-PA]
- descending order of affinity to the WT (liposome association) ((His)6-GmACBP4.1_33–354 [3]): di-16:0-PA ≈ di-18:1-PA > di-18:0-PA > di-14:0-PA

Molecule: CCCCC/C=C\C/C=C\CCCCCCCC(=O)SCCNC(=O)CCNC(=O)[C@H](O)C(C)(C)COP(=O)(O)OP(=O)(O)OC[C@H]1O[C@@H](n2cnc3c(N)ncnc32)[C@H](O)[C@@H]1OP(=O)(O)O [C18:2-CoA, linoleoyl-CoA]
- increase in WT binding with VLXB:StrepII [4]: up to four-fold
- Kd (AtACBP1): 400 to 800 nM
- IC50 ([5]; WT protein 2.5 μg mL−1, 1 μM PA beads, competing C18:2-CoA, mean ± SEM, three experiments, read-out: half maximal inhibitory concentration (IC50) for PA-bound WT fraction): 22900 nM
- effect on Y135A binding to PA beads ([5]; Y135A mutant, compared with WT): less affected
- Kd ((His)6-GmACBP4.1_33–354 [6]): 920 nM and 900 to 1200 nM
- IC50 (GmACBP4.1_33–354 (WT)): 22900 nM
- increase in WT binding with GmPLDα1:StrepII [7]: did not influence
